Data: the NIST ThermoML archive (doi:10.1021/je901026b)
Numbers after ± are expanded uncertainties.

Columns and labels:
[1] = refractive index (Na D-line) (dimensionless); conditions: 293.15 K; 101.33 kPa; Liquid; Standard Abbe refractometry
[2] = Liquid; for mass density: 298.15 K, 101.33 kPa; for vapor or sublimation pressure: Ebulliometric method (Recirculating still)

Question: With `CC(C)CC(C)(C)C` [2,2,4-trimethylpentane] as the molecule, how does the refractive index [1] read?
Answer: The refractive index was 1.38894 ± 0.00045.

Question: And the mass density [2]?
Answer: Its mass density is 687.8 ± 1.3 kg/m3.

Question: And the “vapor or sublimation pressure” value ([2]; 318.13 K)?
Answer: Its value is 15.85 ± 0.11 kPa.

Question: What about the “vapor or sublimation pressure” value ([2]; 328.15 K) of the same molecule?
Answer: Its value is 23.68 ± 0.14 kPa.

Question: And the “vapor or sublimation pressure” value ([2]; 338.15 K)?
Answer: Its value is 34.4 ± 0.19 kPa.

Question: Which refractive index [1] does the source give for `CCC(C)(C)OC` [2-methoxy-2-methylbutane] here?
Answer: Its refractive index is 1.38614 ± 0.00041.

Question: What about the mass density [2] of the same molecule?
Answer: The mass density was 765.85 ± 0.66 kg/m3.

Question: What about the “vapor or sublimation pressure” value ([2]; 318.13 K) of the same molecule?
Answer: Its value is 23.96 ± 0.14 kPa.

Question: And the “vapor or sublimation pressure” value ([2]; 328.15 K)?
Answer: Its value is 35.45 ± 0.19 kPa.

Question: And the “vapor or sublimation pressure” value ([2]; 328.2 K)?
Answer: Its value is 35.45 ± 0.19 kPa.

Question: And the “vapor or sublimation pressure” value ([2]; 338.15 K)?
Answer: The value was 51.05 ± 0.25 kPa.

Question: And the “vapor or sublimation pressure” value ([2]; 338.28 K)?
Answer: Its value is 51.05 ± 0.25 kPa.

Question: Which results are given for `CC(C)(C)O` [2-methylpropan-2-ol]?
Answer: mass density [2]: 780.44 ± 0.64 kg/m3; vapor or sublimation pressure ([2]; 318.13 K): 17.95 ± 0.12 kPa; vapor or sublimation pressure ([2]; 328.2 K): 30.35 ± 0.17 kPa; vapor or sublimation pressure ([2]; 338.28 K): 48.93 ± 0.24 kPa
